Data reported in ChEMBL document CHEMBL3137356, “MMV Box Cryptosporidium parvum screening set”.

These molecules were tested on Cryptosporidium parvum (assay: MMV: Cryptosporidium parvum oocysts (Iowa Strain) were prepared for use by treatment with 10 mM HCl (37 degrees C, 10 min) followed by 2 mM sodium taurocholate in phosphate-buffered saline (PBS) with Ca2+ and Mg2+ (16 degrees C, 10 min) in order to stimulate excystation. The high-throughput screen was carried out by inoculating >90% confluent human ileocecal adenocarcinoma (HCT-8) cells (ATCC) with ~5.5 x 10^3 primed oocysts per well. Experimental compounds or DMSO (vehicle) were added three hours after infection, and cells were incubated for 48 hours.).
Format: functional

| SMILES | Inhibition [%] |
| --- | --- |
| CN1CCN(c2ccc(Nc3c4ccccc4nc4ccccc34)cc2)CC1 | 7.066 |
| CN(C)CCCNc1c2ccccc2nc2ccccc12 | 55.64 |
| CCN1CCCC1CNc1[nH]cnc2c3cc(Cl)ccc3nc1-2 (stereo not drawn) | -14.57 |
| COc1ccc(-c2c(C)nn3c(N)c(C#N)cnc23)cc1OC | -20.9 |
| CSC1=NC(=Nc2c(C)cccc2C)C2(CCC(C(C)(C)C)CC2)N1c1ccc(Cl)cc1 (stereo not drawn) | -57.3 |
| C[n+]1c2ccccc2nc2ccc(NCCO)cc21 | -27.1 |
| Cc1cc(C)cc(Nc2cc(C)nc3nc(C(F)(F)F)nn23)c1 | -21.92 |
| O=C(NCC(c1ccsc1)N1CCCCCC1)c1ccc(C(F)(F)F)cc1 (stereo not drawn) | -22.24 |
| COc1ccc(-c2cc3c(SCC(=O)Nc4cc(C(F)(F)F)ccc4Cl)nccn3n2)cc1 | -78.4 |
| Cc1ccc(-c2cc3c(SCC(=O)Nc4cc(C(F)(F)F)ccc4Cl)nccn3n2)cc1 | -45.33 |
| CCN(CC)CCNc1ncnc2c1[nH]c1ccc(Cl)cc12 | -27.98 |
| CCOC(=O)c1cnc2ccc(CC)cc2c1O | -16.47 |
| Cc1ccc(-c2cc3c(nn2)-c2ccccc2C3=O)cc1 | -55.29 |
| CCN(CC)CCNc1ccnc2cc(Cl)ccc12 | -45.62 |
| Cc1ccc(Nc2nc(-c3ccccn3)cs2)cc1 | -19.75 |
| CCCCCC(=O)N1c2ccccc2N=C2CC(c3ccc(OC)c(OC)c3)CC(O)=C2C1c1ccc(C(F)(F)F)cc1 (stereo not drawn) | -9.957 |
| Cc1cc(Nc2ccc3ccccc3c2)n2ncnc2n1 | -10.13 |
| Cc1cc(NCCN2CCCCC2)c2ccc3ccccc3c2n1 | -25.58 |
| COc1ccc(-n2ccnc2SCC(=O)Nc2cc(C)ccc2C)c(OC)c1 | -14.53 |
| CCN1CCN(Cc2ccc(NC(=O)c3cc4ccc5cccnc5c4[nH]3)cc2)CC1 | -49.16 |
| COc1ccc(-c2nc(NC(=O)CS(=O)(=O)c3ccc(F)cc3)sc2C)cc1 | -22.95 |
| O=C(O)C1Cc2c([nH]c3ccccc23)C(c2ccc(Cl)cc2Cl)N1 (stereo not drawn) | -71.65 |
| c1ccc(-c2ccc(-c3nc4ccccc4[nH]3)cc2)cc1 | 27.1 |
| CCC(C)NCC(O)(c1ccc(Cl)cc1)c1ccc(Cl)cc1 (stereo not drawn) | -5.937 |
| Cc1ccc(N2C(=O)C3C(C2=O)C2(c4ccccc4)C(=O)C3(c3ccccc3)C(c3ccccc3)=C2c2ccccc2)cc1 (stereo not drawn) | -46.86 |
| CCc1c(C)c(=N)c2ccccc2n1C.I | 11.41 |

| SMILES | Inhibition [%] |
| --- | --- |
| COc1cccc(NC(=O)[C@H](C(C)C)n2c(=O)[nH]c3ccccc3c2=O)c1 | 8.977 |
| CCOC(=O)c1cn(CC)c2cc(N(C)CCc3ccc(OC)c(OC)c3)c(F)cc2c1=O | 43.56 |
| CCC(c1ccccc1)c1nn2c(-c3cccs3)nnc2s1 (stereo not drawn) | -11.07 |
| CC(C)(C)c1ccc(O)c(CNC2CCCCC2)c1 | -70.4 |
| O=[N+]([O-])c1ccc(C=NNc2nc3ccccc3[nH]2)cc1 | -55.94 |
| CCOc1cc2c(cc1OCC)C(c1cc(OC)c(O)cc1Cl)NCC2 (stereo not drawn) | -16.38 |
| CC1CN(C(=O)c2sc3ccccc3c2Cl)CC(C)O1 (stereo not drawn) | 27 |
| COCCNC(=O)c1ccc(OC2CCN(Cc3ccc(F)c(F)c3)CC2)c(Cl)c1 | 10.52 |
| CN(C)c1ccc(C=Cc2nc(=O)c3ccccc3o2)cc1 | -61.37 |
| COc1ccc(C2=C(c3ccc(OC)cc3)C3(c4ccccc4)C(=O)C2(c2ccccc2)C2C(=O)N(c4ccc(C)cc4)C(=O)C23)cc1 (stereo not drawn) | 63.25 |
| CCOC(=O)c1c(NC(=O)c2ccccc2)sc2c(O)c(CN(CC)CC)ccc12 | 50.63 |
| CCOC(=O)C1=C(c2ccccc2)N=c2sc(=Cc3cc(C)n(-c4ccc(F)cc4)c3C)c(=O)n2C1c1cccc(OC)c1OC (stereo not drawn) | -76.69 |
| CCC1(C)CC(CCNCc2ccccc2O)(c2ccc(C)cc2)CCO1 (stereo not drawn) | -2.346 |
| O=C(CCc1ccco1)NC1CCN(CC2(c3ccc(Cl)cc3)CCC2)CC1 | -27.18 |
| OC(CNC1CCCCC1)Cn1c2ccccc2c2ccccc21 (stereo not drawn) | -24.91 |
| Cc1cc(Nc2ccc(C)c(Cl)c2)n2nc(C(F)(F)F)nc2n1 | 4.308 |
| COc1cccc(C=Cc2nc(=O)c3ccccc3o2)c1OC | 44.65 |
| CCCN(CCC)CC(O)COc1ccccc1C(=O)Nc1ccccc1 (stereo not drawn) | 46.62 |
| Fc1ccc2[nH]c3c(NCCCN4CCOCC4)ncnc3c2c1 | -0.2614 |
| COc1ccc(C(=O)Nc2nonc2-c2ccc(OC)c(OC)c2)cc1Cl | 4.722 |
| COCCN(C(=O)Cc1cccs1)C(C(=O)NCc1ccc(OC)cc1)c1ccc(C(C)C)cc1 (stereo not drawn) | 3.107 |
| COc1ccc(C=C2SC(=N)N(c3ccccc3OC)C2=O)cc1 | 10.76 |
| COc1ccc(NC(=O)C2c3ccccc3C(=O)N(CC(C)C)C2c2cccs2)cc1Cl (stereo not drawn) | -10.67 |
| CCOC(=O)c1c(C)n(-c2ccc(Cl)cc2)c2ccc(OC(=O)C=Cc3ccccc3)cc12 | -77.36 |
| COc1ccc2c(c1)OC(O)(C(F)(F)C(F)(F)F)CC2=O (stereo not drawn) | 33.72 |
| FC(F)(F)c1cccc(CNC2CCN(CCc3ccccc3)CC2)c1 | -52.87 |

| SMILES | Inhibition [%] |
| --- | --- |
| Oc1ccc(Cl)cc1CNc1nc2ccccc2[nH]1 | -2.947 |
| CCOc1cc(Cl)c(C(C)NC(=O)c2ccccc2)cc1OCC (stereo not drawn) | 5.189 |
| C=CC12CCN(CC1)C(C(O)c1ccnc3ccc(OC)cc13)C2.Cl (stereo not drawn) | 1.246 |
| Cc1ccc(-c2cc3nc4c(c(O)n3n2)CCCC4)cc1 | 2.31 |
| O=C(c1ccccc1F)N(Cc1ccc(Cl)cc1)c1ccccn1 | -0.1452 |
| Cc1cccc(Nc2nc(N)c3ccccc3n2)c1.Cl | 39.08 |
| CCn1c(CN2CCN(Cc3ccccc3)CC2)nc2cc(NC(=O)c3cccs3)ccc21 | -14.21 |
| COc1ccccc1CNC(=O)CCn1c(=O)[nH]c2ccccc2c1=O | 3.729 |
| O=C(Nc1ccc(Cl)cc1)N1CCN(c2ccc3nncn3n2)CC1 | 64.92 |
| c1ccc2cc3c(Nc4ccc(N5CCOCC5)cc4)ccnc3cc2c1 | 17 |
| CCCCNCC(O)(c1ccc(Cl)cc1)c1ccc(Cl)cc1 | 9.548 |
| Cc1cc(C)c2c(c1)OCN(Cc1ccccc1Cl)C2 | -66.49 |
| COc1cc(OC)c(N(C)C(=O)c2cc3c(s2)-c2ccccc2S(=O)(=O)C3)cc1Cl | -25.68 |
| COc1ccccc1NC1=C(N2CCCCC2)C(=O)c2ccccc2C1=O | -35.82 |
| CCOC(=O)c1cn(CC)c2cc(N3CCCCC3)c(F)cc2c1=O | 6.363 |
| CCCc1cc(O)c2c3c(c(=O)oc2c1)CN(C)CC3 | -49.5 |
| Cc1cc(NC(=O)C2c3ccccc3C(=O)N(CC(C)C)C2c2cccs2)no1 (stereo not drawn) | -19.27 |
| Cl.Oc1ccccc1CNCC12CC3CC(CC(C3)C1)C2 | -10.2 |
| CNCCCNc1ccnc2cc(Cl)ccc12 | -4.729 |
| COc1ccccc1CNC(=O)CCn1c(=O)[nH]c2ccsc2c1=O | -10.39 |
| COc1ccc(Br)cc1C1Nc2ccc3ccccc3c2C2=C1C(=O)CC(c1ccccc1)C2 (stereo not drawn) | -67.54 |
| Cc1cc(C=C2SC(=Nc3ccccc3)N(C3CCCC3)C2=O)c(C)n1-c1ccc(Cl)cc1 | 0.2141 |
| CCn1c(SCC(=O)Nc2cc(C(F)(F)F)ccc2Cl)nc2ccccc2c1=O | -35.13 |
| Cc1ccc(Cn2c(N3CCC(C(=O)NCc4cccs4)CC3)nc3ccccc32)cc1 | -4.981 |
| CC1CCN(Cc2ccc(NC(=O)c3cc4ccc5cccnc5c4[nH]3)cc2)CC1 | -17.38 |
| O=C(Nc1ccc(Cl)cc1C(=O)Nc1ccncc1)c1ccc(Cl)cc1Cl | -3.564 |

| SMILES | Inhibition [%] |
| --- | --- |
| CCOc1ccc(-c2nonc2NC(=O)c2cccc(C)c2)cc1OCC | 2.223 |
| CCc1ccc(Nc2cc(C)c3ccc(O)cc3n2)cc1.Cl | -30.31 |
| COc1ccc2c(=O)cc(C(Cl)(Cl)Cl)oc2c1 | 71.77 |
| CC(C)(C)CC(C)(C)NCC(O)COc1ccc2c(c1)CCC2.Cl (stereo not drawn) | -49.34 |
| CCOc1ccc(/C=C/c2nc(=O)c3ccccc3o2)cc1 | -0.2946 |
| O=C(Nc1ccccc1O)c1ccc(-c2ccc(Cl)cc2Cl)o1 | -8.773 |
| O=C(Nc1nc(-c2ccccn2)cs1)c1ccccc1Br | 62.15 |
| CSc1ccccc1C(=O)Nc1nc(-c2ccccn2)cs1 | 75.6 |
| CC(O)(c1ccc(Cl)cc1)C(CN1CCCCC1)c1ccccc1.Cl (stereo not drawn) | 15.77 |
| CCCCc1ccc(NS(=O)(=O)c2cc3c4c(c2)CCN4C(=O)CC3)cc1 | 4.064 |
| CCOc1ccccc1CNC(=O)C1c2ccccc2C(=O)N(CC(C)C)C1c1cccs1 (stereo not drawn) | -30.75 |
| COc1ccc(-c2nc3cc(Cc4ccc5[nH]c(-c6ccc(OC)cc6)nc5c4)ccc3[nH]2)cc1 | 35.52 |
| CCOC(=O)c1ccc2nc(-c3ccccc3)cc(O)c2c1 | -8.454 |
| Cc1cc(Nc2ccc(Cl)cc2)n2nc(C(F)(F)F)nc2n1 | 36.64 |
| COc1ccc(C(C)=O)cc1N1C(=O)C2C(C1=O)C1(c3ccccc3)C(=O)C2(c2ccccc2)C(c2ccc(C)cc2)=C1c1ccc(C)cc1 (stereo not drawn) | 5.543 |
| CCCCCCOC(=O)C1=C(C)NC(=O)NC1c1ccccc1F (stereo not drawn) | -26.01 |
| COc1ccc(C2Sc3ccccc3N=C3C2=C(O)c2ccccc23)cc1 (stereo not drawn) | 19.55 |
| Cc1ccc(N2C3c4ccccc4N(S(=O)(=O)c4ccc(C)cc4)C2c2ccccc2N3S(=O)(=O)c2ccc(C)cc2)cc1 | -51.15 |
| CCCc1c(CC)c(=N)c2ccccc2n1C | -20.98 |
| CCN(CC)CCCNc1nc(-c2ccc(Cl)cc2)nc2ccccc12 | -30.51 |
| Cc1ccc(Nc2nc(NCCO)c3ccccc3n2)cc1C | 34.33 |
| CC1CCCCN1CCCNC(=O)c1ccc2c(c1)sc1nc(-c3ccc(F)cc3)cn12 (stereo not drawn) | 7.741 |
| CCOC(=O)c1cnc2c(C)cc(C)cc2c1Nc1ccc(OC)c(OC)c1 | -30.02 |
| COc1ccc(NC(=O)C2c3ccccc3C(=O)N(CC(C)C)C2c2cccs2)cc1 (stereo not drawn) | 0.02548 |
| c1ccc(Cn2c(N=Nc3c(Nc4ccccc4)ccc4ccccc34)nc3ccccc32)cc1 | 2.817 |
